Measurements as given in paper PMC8639918, “Mechanism of phosphate sensing and signaling revealed by rice SPX1-PHR2 complex structure” (Nature Communications, 2021).
Numbering of substitutions follows the chain as printed.

Tests used:
Assay type in all cases: binding
InsP6-SPX1-PHR2 complex = target: T1, InsP6-SPX1-PHR2 complex (Oryza sativa, UniProt Q69XJ0); assay: X-ray crystal structure, […] Å; settings: basic groove between SPX1 helices α1, α2 and α4; allosteric
T1 construct: SPX1 1-198 with T4 lysozyme fused to its C-terminus (crystallisation aid) plus Se-Met PHR2 248-380 (MYB and CC domains), tags cut with TEV, E. coli BL21(DE3), 1:1 heterodimer; with Protein PHOSPHATE STARVATION RESPONSE 2

SPX1^1–259 [1] = target: T2, SPX1^1–259 (Oryza sativa, UniProt Q69XJ0); assay: ITC; settings: 25 °C; 20 mM HEPES/NaOH pH 7.5, 200 mM NaCl, 2 mM beta-mercaptoethanol
T2 construct: residues 1-259 (C-terminally truncated), N-terminal 10xHis-MsyB tag cut with TEV, E. coli BL21(DE3), monomer
T2 sequence (Q69XJ0 1-259): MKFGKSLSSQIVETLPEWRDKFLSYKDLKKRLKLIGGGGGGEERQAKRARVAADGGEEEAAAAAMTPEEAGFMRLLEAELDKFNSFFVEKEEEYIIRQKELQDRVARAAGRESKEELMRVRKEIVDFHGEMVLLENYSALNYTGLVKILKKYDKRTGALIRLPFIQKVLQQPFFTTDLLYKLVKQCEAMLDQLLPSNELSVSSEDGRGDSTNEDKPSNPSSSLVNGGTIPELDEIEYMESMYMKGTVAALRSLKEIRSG
From the text: ITC on SPX1^1–259 | In contrast to the moderate InsP6 binding ability of the wild-type protein

SPX1^1–259 [2] = target: T2, SPX1^1–259; assay: thermal shift assay (SYPRO Orange); settings: 20 mM HEPES/NaOH pH 7.5, 200 mM NaCl; InsP6 0 to 250 μM
SPX1^1–259▵N17 = target: T3, SPX1^1–259▵N17 (Oryza sativa, UniProt Q69XJ0); assay: ITC; settings: 25 °C; 20 mM HEPES/NaOH pH 7.5, 200 mM NaCl, 2 mM beta-mercaptoethanol
T3 construct: SPX1 1-259 without the N-terminal helix alpha1 (deltaN17, residues 1-17 deleted), N-terminal 10xHis-MsyB tag cut with TEV, E. coli BL21(DE3)
T3 sequence (Q69XJ0 18-259): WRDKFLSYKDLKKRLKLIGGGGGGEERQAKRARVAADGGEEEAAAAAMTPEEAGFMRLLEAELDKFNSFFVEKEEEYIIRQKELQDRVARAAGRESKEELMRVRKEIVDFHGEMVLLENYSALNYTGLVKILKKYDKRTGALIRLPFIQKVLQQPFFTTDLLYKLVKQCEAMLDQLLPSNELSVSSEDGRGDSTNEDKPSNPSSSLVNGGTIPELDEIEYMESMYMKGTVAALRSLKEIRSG

SPX1^1–259 [3] = target: T4, SPX1^1–259 (Oryza sativa, UniProt Q69XJ0, K147A); assay: ITC
T4 construct: residues 1-259 (C-terminally truncated), N-terminal 10xHis-MsyB tag cut with TEV, E. coli BL21(DE3), monomer
T4 sequence (Q69XJ0 1-259 K147A): T2 sequence (Q69XJ0 1-259) with K147A
From the text: ITC on SPX1^1–259 | SPX1 K147A mutation had little effect on InsP6 binding affinity

SPX1^1–259 [4] = target: T5, SPX1^1–259 (Oryza sativa, UniProt Q69XJ0, Y25F/K29A/K151A); assay: ITC; settings: 25 °C; 20 mM HEPES/NaOH pH 7.5, 200 mM NaCl, 2 mM beta-mercaptoethanol
T5 construct: residues 1-259 (C-terminally truncated), N-terminal 10xHis-MsyB tag cut with TEV, E. coli BL21(DE3), monomer
T5 sequence (Q69XJ0 1-259 Y25F/K29A/K151A): T2 sequence (Q69XJ0 1-259) with Y25F, K29A, K151A

T1 sequence (Q6Z156 with tags, fused parts or gaps V263M/L278M/L295M/L340M partner, one chain of several): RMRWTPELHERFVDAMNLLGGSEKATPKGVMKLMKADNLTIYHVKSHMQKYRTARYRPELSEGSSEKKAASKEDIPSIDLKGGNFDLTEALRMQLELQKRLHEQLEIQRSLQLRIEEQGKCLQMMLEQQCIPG

- Kd (SPX1^1–259 [1]): 5.5 ± 0.93 µM
- Kd (SPX1^1–259▵N17): 34.1 ± 1.95 µM
- Kd (SPX1^1–259 [3]): 5.69 ± 1.46 µM
SMILES: O=P(O)(O)O[C@H]1[C@H](OP(=O)(O)O)[C@@H](OP(=O)(O)O)[C@H](OP(=O)(O)O)[C@@H](OP(=O)(O)O)[C@H]1OP(=O)(O)O [InsP6]
- X-ray crystal structure, 2.6 Å (InsP6-SPX1-PHR2 complex): each captured by an SPX1 molecule via a highly basic surface groove
- Tm (SPX1^1–259 [2]): InsP6 could increase the melting temperature (Tm) of SPX1 greatly
- Kd (SPX1^1–259 [4]): the SPX1 mutant lost its InsP6-binding activity
